In patent US9980943B2, “Methods of treating muscular dystrophy” (BOARD OF REGENTS OF THE NEVADA SYSTEM OF HIGHER EDUCATION, …, priority 2013, dated 2018):

Experiments:
Type in all cases: cell-based, mouse
[1] = test system: α7 integrin (LacZ reporter in α7βgal+/− myoblasts); experiment: Myoblast α7+/LacZ integrin FDG assay (Burkin assay in myoblasts, 96-well); conditions: α7+/LacZ myoblasts, 96-well
[2] = test system: α7 integrin (LacZ reporter in α7+/LacZ myotubes); experiment: Myotube α7 integrin FDG assay (Burkin assay in myotubes, 96-well); conditions: myotubes
[3] = test system: β-galactosidase in CMV-LacZ C2C12 myoblasts; experiment: CMV-LacZ secondary screen in C2C12 myoblasts (β-Gal stabilizing assay); conditions: CMV-LacZ C2C12 myoblasts
How it was run: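 A secondary screen identifies compounds that stabilize β-gal independently of the native promoter, using CMV-LacZ C2C12 cells. Curves span 0.5–40 μM at six levels, in duplicate.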

[4] = test system: β-galactosidase in CMV-LacZ C2C12 myotubes; experiment: CMV-LacZ secondary screen in C2C12 myotubes (β-Gal stabilizing assay); conditions: C2C12 CMV-LacZ myotubes, fold relative to DMSO
How it was run: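 Stable CMV-LacZ C2C12 clone; six-point curve 0.5–40 μM; duplicates.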

SMILES | Burkin Assay in Myoblasts, signal relative to DMSO ([1]; 0.5 uM) | Burkin Assay in Myoblasts, signal relative to DMSO ([1]; 1 uM) | Burkin Assay in Myoblasts, signal relative to DMSO ([1]; 5 uM) | Burkin Assay in Myoblasts, signal relative to DMSO ([1]; 10 uM) | Burkin Assay in Myoblasts, signal relative to DMSO ([1]; 20 uM) | Burkin Assay in Myoblasts, signal relative to DMSO ([1]; 40 uM) | Burkin Assay in Myotubes, α7 integrin LacZ reporter signal relative to DMSO ([2]; 0.5 uM) | Burkin Assay in Myotubes, α7 integrin LacZ reporter signal relative to DMSO ([2]; 1 uM) | Burkin Assay in Myotubes, α7 integrin LacZ reporter signal relative to DMSO ([2]; 5 uM) | Burkin Assay in Myotubes, α7 integrin LacZ reporter signal relative to DMSO ([2]; 10 uM) | Burkin Assay in Myotubes, α7 integrin LacZ reporter signal relative to DMSO ([2]; 20 uM) | Burkin Assay in Myotubes, α7 integrin LacZ reporter signal relative to DMSO ([2]; 40 uM) | CMV-LACZ in Myoblasts (β-galactosidase activity relative to DMSO) ([3]; 0.5 uM) | CMV-LACZ in Myoblasts (β-galactosidase activity relative to DMSO) ([3]; 1 uM) | CMV-LACZ in Myoblasts (β-galactosidase activity relative to DMSO) ([3]; 5 uM) | CMV-LACZ in Myoblasts (β-galactosidase activity relative to DMSO) ([3]; 10 uM) | CMV-LACZ in Myoblasts (β-galactosidase activity relative to DMSO) ([3]; 20 uM) | CMV-LACZ in Myoblasts (β-galactosidase activity relative to DMSO) ([3]; 40 uM) | CMV-LACZ in Myotubes, signal relative to DMSO ([4]; 0.5 uM) | CMV-LACZ in Myotubes, signal relative to DMSO ([4]; 1 uM) | also measured
Cc1cccc(NCC(=O)N/N=C\c2ccccn2)c1 [MLS000710288-01] | 1.168 | 1.305 | 1.3928 | 1.1778 | 0.8681 | 0.5963 | 1.076 | 0.9575 | 1.084 | 0.9598 | 1.024 | 0.8202 | 1.0338 | 0.9325 | 1.0737 | 1.2515 | 1.1193 | 0.9063 | 1.0371 | 1.1133 | CMV-LACZ in Myotubes, signal relative to DMSO ([4]; 5 uM): 1.0717; CMV-LACZ in Myotubes, signal relative to DMSO ([4]; 10 uM): 1.1225; CMV-LACZ in Myotubes, signal relative to DMSO ([4]; 20 uM): 0.9400; CMV-LACZ in Myotubes, signal relative to DMSO ([4]; 40 uM): 0.8905
Cc1cc(C)cc(OCC(=O)N/N=C/c2ccccn2)c1 [MLS000710669-01] | 1.025 | 1.05 | 1.0722 | 0.9941 | 1.848 | 0.8243 | 1.045 | 1.163 | 1.054 | 0.9 | 0.9967 | 1.0073 | 1.0969 | 0.9975 | 1.0325 | 1.0823 | 1.1319 | 0.8778 | 0.9341 | 0.8881 | CMV-LACZ in Myotubes, signal relative to DMSO ([4]; 5 uM): 0.9690; CMV-LACZ in Myotubes, signal relative to DMSO ([4]; 10 uM): 1.2372; CMV-LACZ in Myotubes, signal relative to DMSO ([4]; 20 uM): 0.8682; CMV-LACZ in Myotubes, signal relative to DMSO ([4]; 40 uM): 1.1824
CC1(C)Cc2ccccc2-c2nc3n(c(=O)c21)CCS3 [MLS000711491-01] | 1.214 | 1.0159 | 1.02 | 1.024 | 0.7949 | 0.5793 | 1.07 | 1.062 | 0.9629 | 0.9462 | 0.671 | 0.579 | 1.0889 | 1.1060 | 0.9088 | 1.0199 | 1.5063 | 0.7800 | 0.9495 | 0.9095 | CMV-LACZ in Myotubes, signal relative to DMSO ([4]; 5 uM): 0.9993; CMV-LACZ in Myotubes, signal relative to DMSO ([4]; 10 uM): 0.8645; CMV-LACZ in Myotubes, signal relative to DMSO ([4]; 20 uM): 1.1318; CMV-LACZ in Myotubes, signal relative to DMSO ([4]; 40 uM): 0.9929
CNC(=O)CSc1nnc(-c2ccc3c(c2)OCO3)n1C [MLS000717689-01] | 1.158 | 1.042 | 1.032 | 1.038 | 0.96 | 0.9866 | 1.111 | 0.9006 | 1.048 | 1.076 | 0.8283 | 0.7135 | 1.0125 | 1.0203 | 1.1129 | 1.0936 | 1.0407 | 0.8996 | 0.8415 | 1.0956 | CMV-LACZ in Myotubes, signal relative to DMSO ([4]; 5 uM): 0.9686; CMV-LACZ in Myotubes, signal relative to DMSO ([4]; 10 uM): 0.9569; CMV-LACZ in Myotubes, signal relative to DMSO ([4]; 20 uM): 0.9576; CMV-LACZ in Myotubes, signal relative to DMSO ([4]; 40 uM): 0.9129
CCn1c(=O)c2cc(C(=O)N(C)c3cc(C)ccc3OC)sc2c2ccccc21 [MLS000731285-01] | 1.064 | 0.9235 | 0.7727 | 0.7344 | 0.604 | 0.6077 | 0.8544 | 0.961 | 0.8695 | 0.9409 | 0.69 | 0.1953 | 1.1747 | 1.0853 | 1.0851 | 0.8436 | 0.9582 | 0.6572 | 1.2048 | 1.0562 | CMV-LACZ in Myotubes, signal relative to DMSO ([4]; 5 uM): 1.4794; CMV-LACZ in Myotubes, signal relative to DMSO ([4]; 10 uM): 1.3012; CMV-LACZ in Myotubes, signal relative to DMSO ([4]; 20 uM): 1.0310; CMV-LACZ in Myotubes, signal relative to DMSO ([4]; 40 uM): 0.6450
Cn1cc(CN(CCO)Cc2cccs2)c(-c2ccccc2F)n1 [MLS000732652-01] | 1.176 | 1.191 | 0.972 | 1.2648 | 1.0346 | 0.8792 | 1.092 | 1.116 | 1.1938 | 1.141 | 0.6797 | 0.7309 | 0.6700 | 0.7744 | 1.1327 | 1.1235 | 0.9374 | 0.7856 | 1.1615 | 0.8859 | CMV-LACZ in Myotubes, signal relative to DMSO ([4]; 5 uM): 1.0614; CMV-LACZ in Myotubes, signal relative to DMSO ([4]; 10 uM): 1.0697; CMV-LACZ in Myotubes, signal relative to DMSO ([4]; 20 uM): 0.8518; CMV-LACZ in Myotubes, signal relative to DMSO ([4]; 40 uM): 1.0329
